Measurements published in ChEMBL document CHEMBL5356973 (J Med Chem, 2023).
Active and inactive are the calls of the source. No cut-off for these calls is given here.

Tests used:
[1] = target: T1, Mu-type opioid receptor (Homo sapiens, UniProt P35372); experiment: Agonist activity at MOR (unknown origin) transfected in CHO cells co-expressing Galphaq15 assessed as increase in calcium mobilization by Fluo-4AM dye based assay; type: functional, cell-based
[2] = target: T1, Mu-type opioid receptor; experiment: Agonist activity at MOR (unknown origin) transfected in CHO cells co-expressing Galphaq15 assessed as increase in calcium mobilization by measuring maximal efficacy by Fluo-4AM dye based assay relative to control; type: functional, cell-based; settings: filed as agonist
[3] = target: T2, Kappa-type opioid receptor (Homo sapiens, UniProt P41145); experiment: Agonist activity at KOR (unknown origin) transfected in CHO cells co-expressing Galphaq15 assessed as increase in calcium mobilization by Fluo-4AM dye based assay; type: functional, cell-based
T2 sequence (P41145 whole entry): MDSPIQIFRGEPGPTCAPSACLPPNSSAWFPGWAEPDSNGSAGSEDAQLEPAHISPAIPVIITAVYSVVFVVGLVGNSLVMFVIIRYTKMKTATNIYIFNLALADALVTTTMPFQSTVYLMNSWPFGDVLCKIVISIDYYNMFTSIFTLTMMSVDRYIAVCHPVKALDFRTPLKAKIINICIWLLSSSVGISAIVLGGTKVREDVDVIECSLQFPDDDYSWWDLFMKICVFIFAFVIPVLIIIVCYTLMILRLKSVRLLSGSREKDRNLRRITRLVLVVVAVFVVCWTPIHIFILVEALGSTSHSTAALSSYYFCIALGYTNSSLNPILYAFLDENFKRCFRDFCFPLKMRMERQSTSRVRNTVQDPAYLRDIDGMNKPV

[4] = target: T2, Kappa-type opioid receptor; experiment: Agonist activity at KOR (unknown origin) transfected in CHO cells co-expressing Galphaq15 assessed as increase in calcium mobilization by measuring maximal efficacy by Fluo-4AM dye based assay relative to control; type: functional, cell-based; settings: filed as agonist
[5] = target: T3, Delta-type opioid receptor (Homo sapiens, UniProt P41143); experiment: Agonist activity at DOR (unknown origin) transfected in CHO cells co-expressing Galphaq15 assessed as increase in calcium mobilization by Fluo-4AM dye based assay; type: functional, cell-based
T3 sequence (P41143 whole entry): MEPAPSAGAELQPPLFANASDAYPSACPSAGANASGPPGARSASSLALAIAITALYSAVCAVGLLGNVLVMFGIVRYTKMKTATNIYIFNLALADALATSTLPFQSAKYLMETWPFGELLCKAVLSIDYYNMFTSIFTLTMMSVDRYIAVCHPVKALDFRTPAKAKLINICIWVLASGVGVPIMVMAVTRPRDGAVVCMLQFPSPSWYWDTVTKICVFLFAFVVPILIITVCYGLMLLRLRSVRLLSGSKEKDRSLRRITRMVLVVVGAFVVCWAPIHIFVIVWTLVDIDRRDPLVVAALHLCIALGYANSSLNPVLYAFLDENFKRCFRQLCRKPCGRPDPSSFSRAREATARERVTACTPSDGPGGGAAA

[6] = target: T3, Delta-type opioid receptor; experiment: Agonist activity at DOR (unknown origin) transfected in CHO cells co-expressing Galphaq15 assessed as increase in calcium mobilization by measuring maximal efficacy by Fluo-4AM dye based assay relative to control; type: functional, cell-based; settings: filed as agonist
[7] = Agonist activity at NPFF1R (unknown origin) transfected in CHO cells co-expressing Galphaq15 assessed as increase in calcium mobilization by measuring maximal efficacy by Fluo-4AM dye based assay relative to control; type: functional, cell-based; settings: Homo sapiens, filed as agonist
[8] = target: T4, Neuropeptide FF receptor 2 (Homo sapiens, UniProt Q9Y5X5); experiment: Agonist activity at NPFF2R (unknown origin) transfected in HEK293 cells co-expressing Galphaq15 assessed as increase in calcium mobilization by Fluo-4AM dye based assay; type: functional, cell-based
T4 sequence (Q9Y5X5 whole entry): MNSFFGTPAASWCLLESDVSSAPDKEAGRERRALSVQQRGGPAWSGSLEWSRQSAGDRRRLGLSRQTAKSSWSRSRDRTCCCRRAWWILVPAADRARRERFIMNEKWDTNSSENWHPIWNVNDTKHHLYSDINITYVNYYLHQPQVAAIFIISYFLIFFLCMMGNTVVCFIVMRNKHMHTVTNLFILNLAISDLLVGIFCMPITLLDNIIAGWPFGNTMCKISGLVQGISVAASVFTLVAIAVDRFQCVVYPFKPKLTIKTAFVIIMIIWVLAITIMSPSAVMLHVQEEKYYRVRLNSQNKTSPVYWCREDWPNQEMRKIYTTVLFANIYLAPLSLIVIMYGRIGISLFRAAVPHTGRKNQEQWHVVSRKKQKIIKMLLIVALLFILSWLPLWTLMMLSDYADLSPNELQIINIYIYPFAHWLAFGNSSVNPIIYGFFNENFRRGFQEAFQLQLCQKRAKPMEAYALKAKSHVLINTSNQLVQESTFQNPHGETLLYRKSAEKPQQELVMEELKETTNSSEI

[9] = target: T4, Neuropeptide FF receptor 2; experiment: Agonist activity at NPFF2R (unknown origin) transfected in HEK293 cells co-expressing Galphaq15 assessed as increase in calcium mobilization by measuring maximal efficacy by Fluo-4AM dye based assay relative to control; type: functional, cell-based; settings: filed as agonist
[10] = Metabolic stability in mouse plasma assessed as degradation half life at 10 mM measured upto 480 mins by RP-HPLC analysis; type: ADME, cell-free
[11] = Metabolic stability in mouse brain homogenate assessed as degradation half life at 10 mM measured upto 480 mins by RP-HPLC analysis; type: ADME, tissue-based
[12] = system: Mus musculus; experiment: Antinociceptive activity in Kunming mouse assessed as changes in tail flick latency by measuring maximal possible effect at 0.88 nmol/kg, sc measured after 20 mins by tail-flick test; type: functional
[13] = system: Mus musculus; experiment: Antinociceptive activity in Kunming mouse assessed as changes in tail flick latency by measuring maximal possible effect at 0.88 nmol/kg, sc measured after 30 mins by tail-flick test; type: functional; settings: 0.5 h
[14] = system: Mus musculus; experiment: Antinociceptive activity in Kunming mouse assessed as changes in tail flick latency by measuring maximal possible effect at 0.88 nmol/kg, sc measured after 60 mins by tail-flick test; type: functional; settings: 1 h
[15] = system: Mus musculus; experiment: Antinociceptive activity in Kunming mouse assessed as changes in tail flick latency by measuring maximal possible effect at 0.88 nmol/kg, sc measured after 120 mins by tail-flick test; type: functional; settings: 2 h
[16] = system: Mus musculus; experiment: Antinociceptive activity in Kunming mouse assessed as changes in tail flick latency by measuring maximal possible effect at 0.88 nmol/kg, sc measured after 240 mins by tail-flick test; type: functional; settings: 4 h
[17] = system: Mus musculus; experiment: Antinociceptive activity in Kunming mouse assessed as changes in tail flick latency by measuring time duration of antinociceptive effect at 0.88 nmol/kg, sc by tail-flick test; type: functional
[18] = system: Mus musculus; experiment: Antinociceptive activity in sc dosed Kunming mouse assessed as changes in tail flick latency measured after 10 to 360 mins by tail-flick test; type: functional; settings: time 10-360 min
[19] = system: Mus musculus; experiment: Antinociceptive activity in Kunming mouse assessed as changes in tail flick latency at 0.88 nmol/kg, sc pretreated with naloxone methiodide at 5 nmol, icv for 10 mins followed by compound addition and measured for 360 mins by tail-flick test; type: functional, organism-based
[20] = system: Mus musculus; experiment: Antinociceptive activity in Kunming mouse assessed as changes in tail flick latency at 0.88 nmol/kg, sc pretreated with beta-funaltrexamine at 10 nmol, icv for 4 hrs followed by compound addition and measured for 360 mins by tail-flick test; type: functional, organism-based
[21] = system: Mus musculus; experiment: Antinociceptive activity in Kunming mouse assessed as changes in tail flick latency at 0.88 nmol/kg, sc pretreated with nor-binaltorphimine at 10 nmol, icv for 30 mins followed by compound addition and measured for 360 mins by tail-flick test; type: functional, organism-based
[22] = system: Mus musculus; experiment: Antinociceptive activity in Kunming mouse assessed as changes in tail flick latency at 0.88 nmol/kg, sc pretreated with naltrindole at 10 nmol, icv for 10 mins followed by compound addition and measured for 360 mins by tail-flick test; type: functional, organism-based
[23] = system: Mus musculus; experiment: Antinociceptive activity in Kunming mouse assessed as changes in tail flick latency at 0.009 nmol/kg, sc pretreated with 1-adamantanecarbonyl-RF-NH2 at 10 nmol, icv for 5 mins followed by compound addition and measured for 360 mins by tail-flick test; type: functional, organism-based
[24] = system: Mus musculus; experiment: Antinociceptive activity in Kunming mouse assessed as changes in tail flick latency by measuring time duration of action at 0.88 to 8.82 nmol/kg, po measured for 360 mins by tail-flick test; type: functional; settings: dose 0.88-8.82 nmol/kg, 6 h
[25] = system: Mus musculus; experiment: Antinociceptive activity in po dosed Kunming mouse assessed as changes in tail flick latency measured for 360 mins by tail-flick test; type: functional
[26] = system: Mus musculus; experiment: Antinociceptive activity in Kunming mouse assessed as changes in tail flick latency by measuring time duration of action at 1 to 10 pmol, icv measured for 360 mins by tail-flick test; type: functional; settings: dose 1-10 pmol, 6 h
[27] = system: Mus musculus; experiment: Antinociceptive activity in icv dosed Kunming mouse assessed as changes in tail flick latency measured for 360 mins by tail-flick test; type: functional
[28] = Induction of antinociceptive tolerance in Kunming mouse assessed as decrease in tail flick latency at 0.88 nmol/kg, sc administered once daily for 8 days and measured once daily by tail-flick test; type: toxicity, organism-based; settings: in vivo, 192 h, time 8 day
[29] = Toxicity in Kunming mouse assessed as effect on motor coordination at 88 nmol/kg, sc measured after 15 to 45 mins by rotarod test; type: organism-based; settings: in vivo, time 15-45 min
[30] = Toxicity in sc dosed 16 hrs fasted Kunming mouse assessed as constipation by measuring inhibition of gastrointestinal transit administered for 15 mins followed by charcoal meal and measured after 30 mins; type: organism-based; settings: in vivo, 0.75 h, time 45 min
[31] = Toxicity in Kunming mouse assessed as effect on locomotor activity at 88 nmol/kg, sc measured after 20 to 180 mins by open field test; type: organism-based; settings: in vivo, time 20-180 min
[32] = Toxicity in Kunming mouse assessed as addiction behavior at 88 nmol/kg, sc administered for 3 days starting from day 2 and measured on day 5 by conditioned place preference test; type: organism-based; settings: in vivo, 96 h, time 4 day
[33] = Toxicity in sc dosed Kunming mouse assessed as effect on naloxone-induced jumping response at 88 nmol/kg, sc administered every 8 hrs for 3 days followed by naloxone administration at 2 hrs post last dose and measured immediately by Nal-precipitated withdraw test; type: organism-based; settings: in vivo, 74 h
[34] = Toxicity in Kunming mouse assessed as reduction in respiration frequency at 88 nmol/kg, sc measured upto 100 mins by whole-body plethysmography; type: organism-based; settings: in vivo, 1.667 h
[35] = system: Mus musculus; experiment: Antinociceptive activity in Kunming mouse assessed as changes in tail flick latency by measuring maximal possible effect at 26.7 nmol/kg, sc measured after 20 mins by tail-flick test; type: functional
[36] = system: Mus musculus; experiment: Antinociceptive activity in Kunming mouse assessed as changes in tail flick latency by measuring maximal possible effect at 26.7 nmol/kg, sc measured after 30 mins by tail-flick test; type: functional; settings: 0.5 h
[37] = system: Mus musculus; experiment: Antinociceptive activity in Kunming mouse assessed as changes in tail flick latency by measuring maximal possible effect at 26.7 nmol/kg, sc measured after 60 mins by tail-flick test; type: functional; settings: 1 h
[38] = system: Mus musculus; experiment: Antinociceptive activity in Kunming mouse assessed as changes in tail flick latency by measuring maximal possible effect at 26.7 nmol/kg, sc measured after 120 mins by tail-flick test; type: functional; settings: 2 h
[39] = system: Mus musculus; experiment: Antinociceptive activity in Kunming mouse assessed as changes in tail flick latency by measuring maximal possible effect at 26.7 nmol/kg, sc measured after 240 mins by tail-flick test; type: functional; settings: 4 h
[40] = system: Mus musculus; experiment: Antinociceptive activity in Kunming mouse assessed as changes in tail flick latency by measuring time duration of antinociceptive effect at 26.7 nmol/kg, sc by tail-flick test; type: functional
[41] = system: Mus musculus; experiment: Antinociceptive activity in Kunming mouse assessed as changes in tail flick latency at 26.7 nmol/kg, sc pretreated with naloxone methiodide at 5 nmol, icv for 10 mins followed by compound addition and measured for 360 mins by tail-flick test; type: functional, organism-based

T1 sequence (P35372 whole entry): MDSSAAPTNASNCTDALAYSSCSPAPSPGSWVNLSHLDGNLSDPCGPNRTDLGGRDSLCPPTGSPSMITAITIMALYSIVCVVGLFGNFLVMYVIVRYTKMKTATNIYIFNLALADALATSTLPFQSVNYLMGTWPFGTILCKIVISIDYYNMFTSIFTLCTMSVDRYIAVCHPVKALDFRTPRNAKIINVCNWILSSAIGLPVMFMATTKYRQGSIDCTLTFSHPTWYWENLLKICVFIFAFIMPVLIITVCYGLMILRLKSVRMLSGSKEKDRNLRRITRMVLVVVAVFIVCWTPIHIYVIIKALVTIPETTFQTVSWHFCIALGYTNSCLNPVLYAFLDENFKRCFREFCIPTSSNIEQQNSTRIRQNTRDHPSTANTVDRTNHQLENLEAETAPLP

## CN1C(=O)CNC(=O)[C@H](N[C@@H](Cc2ccc(O)cc2)C(=O)O)CCCC/C=C/C[C@@H](C(=O)N2CCC[C@H]2C(=O)N[C@@H](CCC(N)=O)C(=O)N[C@@H](CCCNC(=N)N)C(=O)N[C@@H](Cc2ccccc2)C(N)=O)NC(=O)[C@@H]1Cc1ccccc1
[1]
  EC50: 15.9 nM
[2]
  Emax: 95%
[3]
  EC50: 346 nM
[4]
  Emax: 106%
[5]
  EC50: 228 nM
[6]
  Emax: 77.3%
[7]
  Emax: 88.1%
[8]
  EC50: 33.1 nM
[9]
  Emax: 119%
[10]
  half-life at 10000 µM: 0.63 h
[11]
  half-life at 10000 µM: 2.98 h
[12]
  MPE: 89.9%
[13]
  MPE: 77.2%
[14]
  MPE: 80.5%
[15]
  MPE: 72.8%
[16]
  MPE: 43.5%
[17]
  Time: 360 min
[18]
  Activity: Dose-Dependent Effect
  ED50: 2e-05 µmol/kg
[19]
  Activity: inactive
[20]
  Activity: inactive
[21]
  Activity: inactive
[22]
  Activity: Active
[23]
  Activity: Active
[24]
  Time: <=360 min
[25]
  Activity: Dose-Dependent Effect
[25]; 6 h
  ED50: 0.00195 µmol/kg
[26]
  Time: <=360 min
[27]
  Activity: Dose-Dependent Effect
[27]; 6 h
  ED50: 1.82 pmol
[28]
  Activity: Non-Toxic
[29]
  Activity: Non-Toxic
[30]
  ED50: 95.4 nmol/kg
[31]
  Activity: Non-Toxic
[32]
  Activity: Non-Toxic
[33]
  Activity: Non-Toxic
[34]
  Activity: Non-Toxic

## CN1C(=O)CNC(=O)[C@H](N[C@@H](Cc2ccc(O)cc2)C(=O)O)CCC/C=C/C[C@@H](C(=O)N2CCC[C@H]2C(=O)N[C@@H](CCC(N)=O)C(=O)N[C@@H](CCCNC(=N)N)C(=O)N[C@@H](Cc2ccccc2)C(N)=O)NC(=O)[C@@H]1Cc1ccccc1
[1]
  EC50: 38.9 nM
[2]
  Emax: 120%
[3]
  EC50: 124 nM
[4]
  Emax: 98.3%
[5]
  EC50: 27.7 nM
[6]
  Emax: 93%
[7]
  Emax: 129%
[8]
  EC50: 52.3 nM
[9]
  Emax: 77.9%
[10]
  half-life at 10000 µM: 1.01 h
[11]
  half-life at 10000 µM: 1.52 h
[35]
  MPE: 94.2%
[36]
  MPE: 96%
[37]
  MPE: 81.9%
[38]
  MPE: 65.5%
[39]
  MPE: 44.7%
[40]
  Time: 360 min
[41]
  Activity: inactive
